In ChEMBL document CHEMBL4651402, “Screening of ~5500 FDA-approved drugs and clinical candidates for anti-SARS-CoV-2 activity” (2021):
pIC50: −log10 of the molar value. Peptide text beside a SMILES is read from it.

System: SARS-CoV-2
Test: microbe, parasite or virus in culture
Conditions: Severe acute respiratory syndrome coronavirus 2, Vero C1008, 48 h; for IC50: read-out: pIC50 (converted)

| Compound | pIC50 | IC50 |
| --- | --- | --- |
| Cc1ccc(C23CNCC2C3)cc1 (stereo not given) [BICIFADINE] | < 4.70 | > 20 µM |
| Cc1ccccc1C(=O)Nc1ccc(C(=O)N2CCCC(O)c3cc(Cl)ccc32)c(C)c1 (stereo not given) [TOLVAPTAN] | < 4.70 | > 20 µM |
| Nc1ccc(S(=O)(=O)c2ccc(N)cc2)cc1 [DAPSONE] | < 4.70 | > 20 µM |
| C=C(NC(=O)C(=C)NC(=O)c1csc(C2=N[C@H]3c4csc(n4)[C@H]4NC(=O)c5csc(n5)[C@H]([C@@](C)(O)[C@@H](C)O)NC(=O)[C@H]5CSC(=N5)/C(=C\C)NC(=O)[C@H]([C@@H](C)O)NC(=O)c5csc(n5)[C@]3(CC2)NC(=O)[C@H](C)NC(=O)C(=C)NC(=O)[C@H](C)NC(=O)[C@H](C(C)CC)N[C@@H]2C=Cc3c([C@H](C)O)cc(nc3[C@H]2O)C(=O)O[C@@H]4C)n1)C(N)=O (stereo not given in full) | < 4.70 | > 20 µM |
| CCN(CC)C(=O)N1CCN(C)CC1 [DIETHYLCARBAMAZINE] | < 4.70 | > 20 µM |
| O=C(O)c1cc(=O)[nH]c(=O)[nH]1 [OROTIC ACID] | < 4.70 | > 20 µM |
| Cc1c(C(N)=O)cc([N+](=O)[O-])cc1[N+](=O)[O-] [DINITOLMIDE] | < 4.70 | > 20 µM |
| O=C(N[C@@H](Cc1c[nH]c2ccccc12)C(=O)O)c1ccc(Cl)cc1 [BENZOTRIPT] | < 4.70 | > 20 µM |
| C[C@]12CC[C@H]3[C@@H](CCC4=CC(=O)CC[C@@H]43)[C@@H]1CC[C@@H]2O [NANDROLONE] | < 4.70 | > 20 µM |
| CCn1cc(C(=O)O)c(=O)c2ccc(C)nc21 [NALIDIXIC ACID] | < 4.70 | > 20 µM |
| CC(=O)Nc1c(I)c(NC(C)=O)c(I)c(C(=O)O)c1I [DIATRIZOIC ACID] | < 4.70 | > 20 µM |
| OC(CN1CCC(Cc2ccc(F)cc2)CC1)c1ccc(Cl)cc1 (stereo not given) [ELIPRODIL] | < 4.70 | > 20 µM |
| CCC1(O)CC2CN(CCc3c([nH]c4ccccc34)C(C(=O)OC)(c3cc4c(cc3OC)N(C)C3C(O)(C(=O)OC)C(OC(C)=O)C5(CC)C=CCN6CCC43C65)C2)C1 (stereo not given) | < 4.70 | > 20 µM |
| CC(C)(N)Cc1ccccc1Cl [CLORTERMINE] | < 4.70 | > 20 µM |
| Cn1c(=O)c2c(ncn2CCN2CCC(C(=O)c3ccc(F)cc3)CC2)n(C)c1=O [FLUFYLLINE] | < 4.70 | > 20 µM |
| C=C1c2c(Cl)ccc(O)c2C(=O)C2=C(O)[C@]3(O)C(=O)C(C(N)=O)=C(O)[C@@H](N(C)C)[C@@H]3[C@@H](O)[C@H]12 [MECLOCYCLINE] | < 4.70 | > 20 µM |
| Cn1nc(-c2cccc(F)c2)n(C)c1=S [SURITOZOLE] | < 4.70 | > 20 µM |
| CN1C[C@H]2C[C@@H]1CN2c1cc2c(cc1F)c(=O)c(C(=O)O)cn2C1CC1 | < 4.70 | > 20 µM |
| Nc1nc(O)c2ncn(CCC(CO)CO)c2n1 [PENCICLOVIR] | < 4.70 | > 20 µM |
| CC(=O)N[C@@H](CC(=O)O)C(=O)N[C@@H](CCC(=O)O)C(=O)O [ISOSPAGLUMIC ACID] (Ac-Asp-Glu-OH) | < 4.70 | > 20 µM |
| COc1ccccc1N1CCN(CCCC(O)c2ccc(F)cc2)CC1 (stereo not given) [ANISOPIROL] | < 4.70 | > 20 µM |
| C[N+]1(C)C2CCC1CC(OC(=O)C(CO)c1ccccc1)C2 (stereo not given) | < 4.70 | > 20 µM |
| CC(C)NC[C@@H](C(=O)N1CCN(c2ncnc3c2[C@H](C)C[C@H]3O)CC1)c1ccc(Cl)cc1 [IPATASERTIB] | < 4.70 | > 20 µM |

| Compound | pIC50 | IC50 |
| --- | --- | --- |
| COC1CCC2(C)C(=CCC3C2CCC2(C)C(C(C)=O)CCC32)C1 (stereo not given) | < 4.70 | > 20 µM |
| CC(C)CC(NC(=O)CCN)C(=O)O (racemic) | < 4.70 | > 20 µM |
| CS(=O)(=O)Nc1ccc2c(c1)S(=O)(=O)N=C(C1=C(O)C3C4CCC(C4)C3N(Cc3ccc(F)cc3)C1=O)N2 (stereo not given) | < 4.70 | > 20 µM |
| CCOC(=O)[C@H](CCc1ccccc1)N[C@@H](C)C(=O)N1[C@H](C(=O)O)C[C@@H]2CCC[C@@H]21 | < 4.70 | > 20 µM |
| Nc1ccc(S(=O)(=O)Nc2ccnn2-c2ccccc2)cc1 [SULFAPHENAZOLE] | < 4.70 | > 20 µM |
| Clc1ccc(CCCOCCCN2CCCCC2)cc1 [PITOLISANT] | < 4.70 | > 20 µM |
| O=C(NC1CCCCC1)NS(=O)(=O)c1ccc2c(c1)CCC2 [GLYHEXAMIDE] | < 4.70 | > 20 µM |
| CS(=O)(=O)c1ccc2c(c1)N(CCCN1CCC(C(N)=O)CC1)c1ccccc1S2 [METOPIMAZINE] | < 4.70 | > 20 µM |
| CCN(CC)C(=O)Nc1ccc(OCC(O)CNC(C)(C)C)c(C(C)=O)c1 (stereo not given) [CELIPROLOL] | < 4.70 | > 20 µM |
| O=C(OCCN1CCOCC1)c1cccnc1Nc1cccc(C(F)(F)F)c1 [MORNIFLUMATE] | < 4.70 | > 20 µM |
| O=C(CCCCC(=O)Nc1c(I)cc(I)c(C(=O)O)c1I)Nc1c(I)cc(I)c(C(=O)O)c1I [IODIPAMIDE] | < 4.70 | > 20 µM |
| O=C(Nc1ccc([N+](=O)[O-])cc1Cl)c1cc(Cl)ccc1O [NICLOSAMIDE] | < 4.70 | > 20 µM |
| O=C(O)c1nn(-c2ccc(S(=O)(=O)O)cc2)c(O)c1/N=N/c1ccc(S(=O)(=O)O)cc1 | < 4.70 | > 20 µM |
| NCc1ccc2c(c1)nc(CN1C(=O)C3(CC3)c3ccc(F)cc31)n2CCCC(F)(F)F [SISUNATOVIR] | < 4.70 | > 20 µM |
| CC(=O)N[C@@H](CC(C)C)C(=O)O | < 4.70 | > 20 µM |
| NCCCC(O)(P(=O)(O)O)P(=O)(O)O [ALENDRONIC ACID] | < 4.70 | > 20 µM |
| COc1cc2ncnc(Nc3ccc(F)c(Cl)c3)c2cc1NC(=O)/C=C/CN1CCCCC1 [DACOMITINIB ANHYDROUS] | < 4.70 | > 20 µM |
| CC1=CC(=O)C2=C(C)CCC3C(C)C(=O)OC3C12 (stereo not given) | < 4.70 | > 20 µM |
| Cc1cccc(OCC(O)CNC(C)C)c1 (stereo not given) [TOLIPROLOL] | < 4.70 | > 20 µM |
| O=C(N[C@@H]1CC[C@@H](c2cccc(F)c2F)CN(CC(F)(F)F)C1=O)N1CCC(n2c(=O)[nH]c3ncccc32)CC1 [TELCAGEPANT] | < 4.70 | > 20 µM |
| O=C(c1ccccc1)C(O)c1ccccc1 (stereo not given) [BENZOIN] | < 4.70 | > 20 µM |
| CC(C)(Oc1ccc(C(=O)c2ccc(Cl)cc2)cc1)C(=O)O [FENOFIBRIC ACID] | < 4.70 | > 20 µM |
| CC#CC(=O)N1CCC[C@@H]1c1nc(-c2ccc(C(=O)Nc3ccccn3)cc2)c2c(N)nccn12 | < 4.70 | > 20 µM |
| Nc1nc(=O)n([C@@H]2O[C@H](CO)[C@@H](O)[C@H]2F)cc1I | < 4.70 | > 20 µM |

| Compound | pIC50 | IC50 |
| --- | --- | --- |
| Fc1ccc(C(c2ccc(F)cc2)N2CCN(C/C=C\c3ccccc3)CC2)cc1 | < 4.70 | > 20 µM |
| COc1ccc(CC2c3cc(OC)c(OC)cc3CCN2C)cc1OC (stereo not given) [LAUDANOSINE] | < 4.70 | > 20 µM |
| CNC(=O)Oc1cccc2ccccc12 [CARBARIL] | < 4.70 | > 20 µM |
| O=C1C=CC(=O)c2ccccc21 [NAPHTHOQUINONE] | < 4.70 | > 20 µM |
| CCN(CC)C(=O)C1CN2CCc3cc(OC)c(OC)cc3C2CC1OC(C)=O (stereo not given) [BENZQUINAMIDE] | < 4.70 | > 20 µM |
| CC(C)(O)CC(=O)O [.BETA.-HYDROXYISOVALERIC ACID] | < 4.70 | > 20 µM |
| COc1cccc([C@H]2O[C@H](CC(=O)N3CCC(CC(=O)O)CC3)C(=O)N(CC(C)(C)COC(C)=O)c3ccc(Cl)cc32)c1OC [LAPAQUISTAT ACETATE] | < 4.70 | > 20 µM |
| CNC(=O)c1cc(COc2nnc(Nc3ccc(Cl)cc3)c3ccoc23)ccn1 [TELATINIB] | < 4.70 | > 20 µM |
| Cc1nccnc1N1CCCCC1 [MODALINE] | < 4.70 | > 20 µM |
| Cc1c(Cl)cccc1Nc1ncccc1C(=O)OCC(O)CO (stereo not given) [CLONIXERIL] | < 4.70 | > 20 µM |
| CC#C[C@]1(O)CC[C@H]2[C@@H]3CCC4=CC(=O)CCC4=C3[C@@H](c3ccc(N(C)C)cc3)C[C@@]21C [MIFEPRISTONE] | < 4.60 | > 25.1 µM |
| NCc1c[nH]c(=S)n1[C@H]1CCc2c(F)cc(F)cc2C1 | < 4.70 | > 20 µM |
| CCC1=C(C)CN(C(=O)NCCc2ccc(S(=O)(=O)NC(=O)N[C@H]3CC[C@H](C)CC3)cc2)C1=O [GLIMEPIRIDE] | < 4.70 | > 20 µM |
| O=C1CN2Cc3c(ccc(Cl)c3Cl)N=C2N1 [ANAGRELIDE] | < 4.70 | > 20 µM |
| CC[C@H](CO)Nc1nc(NCc2ccccc2)c2ncn(C(C)C)c2n1 [SELICICLIB] | < 4.70 | > 20 µM |
| C=C(C)[C@@H]1CCC(C)=C[C@H]1c1c(O)cc(CCCCC)cc1O [CANNABIDIOL] | < 4.70 | > 20 µM |
| O=c1cc(-c2ccc(O)cc2)oc2c(C3O[C@H](CO)[C@@H](O)[C@H](O)[C@H]3O)c(O)cc(O)c12 (stereo not given in full) | < 4.70 | > 20 µM |
| O=C1NOCC1/N=C/c1ccc(/C=N/C2CONC2=O)cc1 (stereo not given) [TERIZIDONE] | < 4.70 | > 20 µM |
| CC(C)(C)c1nc(-c2cccc(NS(=O)(=O)c3c(F)cccc3F)c2F)c(-c2ccnc(N)n2)s1 [DABRAFENIB] | < 4.70 | > 20 µM |
| CCOC(=O)C(CCc1ccccc1)NC(C)C(=O)N1CC2(CC1C(=O)O)SCCS2 (stereo not given) | < 4.70 | > 20 µM |
| CC(C)C[C@H](NC(=O)[C@@H](O)[C@H](N)Cc1ccccc1)C(=O)O [UBENIMEX] | < 4.70 | > 20 µM |
| CC(C)(CO)[C@@H](O)C(=O)NCCC(=O)O [PANTOTHENIC ACID] | < 4.70 | > 20 µM |
